Consider 3 compounds from US5776940A, “Phenylxanthine derivatives” (Glaxo Wellcome Inc., priority 1994, dated 1998).

Broadly, the IC50 is the point on the concentration scale where inhibition reaches its midpoint.

For test [1], the target named is T1, lyso-PAF: acetyl-CoA acetyltransferase (Rattus norvegicus, UniProt P0C1Q3).
T1 construct: measured in a lysate of rat pleural neutrophils; endogenous in cells
T1 sequence (P0C1Q3 1-544): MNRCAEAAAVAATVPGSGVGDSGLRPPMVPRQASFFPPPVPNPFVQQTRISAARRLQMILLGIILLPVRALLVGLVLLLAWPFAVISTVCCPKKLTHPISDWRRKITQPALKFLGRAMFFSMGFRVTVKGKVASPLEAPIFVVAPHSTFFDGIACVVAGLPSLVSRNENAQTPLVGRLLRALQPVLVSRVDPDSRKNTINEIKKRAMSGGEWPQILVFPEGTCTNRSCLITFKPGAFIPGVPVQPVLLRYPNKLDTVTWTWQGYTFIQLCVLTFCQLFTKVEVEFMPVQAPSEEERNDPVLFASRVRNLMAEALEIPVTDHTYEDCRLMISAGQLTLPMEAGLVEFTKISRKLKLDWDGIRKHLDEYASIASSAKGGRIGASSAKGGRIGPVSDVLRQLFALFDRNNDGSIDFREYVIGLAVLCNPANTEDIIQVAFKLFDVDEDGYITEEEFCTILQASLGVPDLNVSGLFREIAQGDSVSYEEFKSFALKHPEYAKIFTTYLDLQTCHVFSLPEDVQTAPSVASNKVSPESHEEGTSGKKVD
The test is described as follows: Lyso-PAF: Acetyl-CoA Acetyltransferase [Synthesis of Platelet-Activating Factor (PAF)] in a lysate of rat pleural neutrophils. The class given is biochemical, rat (male Harlan Sprague-Dawley). Conditions: lysate of activated rat pleural neutrophils, pH 6.9, 37° C., 10 min; read-out: Enzymes IC50 PAF. On the procedure: (§1) Compounds of the invention were assayed for inhibiting activity in arachidonate metabolism and PAF synthesis as follows.
B) Lyso-PAF: Acetyl-CoA Acetyltransferase [Synthesis of Platelet-ActivatingFactor (PAF)]
Synthesis of PAF (platelet-activating factor) was measured in a lysate of rat pleural neutrophils, as described by White and Faison, Prostaglandins,1988; 35: p939-44. Pleural exudate cells, harvested from male Harlan Sprague-Dawley rats (150±20 g) 3 hr after injection of 0.5 mg carrageenan, were centrifuged at 200 g for 10 min at 4° C., washed, and resuspended at approximately 17 million cells/mi in a buffer consisting of 50 mM potassium phosphate, 144 mM NaCl, 6 mM KCl, 5 mM glucose, 1 mM MgCl2, 1.3 mM CaCl2, pH 7.4. Resuspended cells were incubated with calcium ionophore A23187 (1 μM) for 5 min at 37° C. to activate the acetyltransferase and then centrifuged at 755 g for 2 min at 4° C. Pellets were resuspended in cold distilled water and sonicated in a 50 Hz ultrasonic bath. Portions (250 μl) of the resulting lysate were mixed with buffer, test compound, and substrates to give 36 mM Tris-Cl, pH 6.9, 12 μM lyso-PAF, and 2.3 μM [^14 C]acetyl-CoA (0.06 μCi) in a total volume of 500 μl. Blank assays contained nonactivated neutrophils and no added lyso-PAF. The compound being tested was added prior to substrates. After incubation at 37° C. for 10 min. 0.68 ml of 2N HCl and 2.53 ml of 1:1 chloroform/methanol were added to each tube to extract labeled PAF. Each tightly-covered tube was briefly sonicated in a Branson 50 Hz bath, vortexed for 20 sec, and centrifuged at 160 g for 5 min to separate solvent phases. A 0.90 ml aliquot of the lower (organic)phase was pipetted into a glass scintillation vial, dried under nitrogen using an N-EVAP apparatus (Organomation Associates), and counted using scintillation techniques.

For test [2], the system named is arachidonate cyclooxygenase. The test is described as follows: Arachidonate metabolism: cyclooxygenase inhibition in rat pleural exudate cells. It counts as cell-based, rat (Harlan Sprague-Dawley male). Conditions: ionophore A23187, 10 μM arachidonate, 37° C., read-out: Enzymes IC50 CO. On the procedure: as §1
A) Arachidonate Metabolism
Arachidonate cyclooxygenase, 5-lipoxygenase, and thromboxane synthetase were assayed as described in White et al, Prostaglandins, Leukotrienes and Medicine, 1985; 20: p 1-9. Pleural exudate cells were harvested from Harlan Sprague-Dawley male rats (150±20 g) 3 hr after intrapleural injection of 0.5 mg carrageenan. Cell counts were obtained from pooled exudates, which were then centrifuged at 200 g (10 min, 4° C.) and resuspended at 15 million cells/ml in 0.13M NaCl, 15 mM Tris-Cl, 5 mM glucose, pH 7.4. Portions of this cell suspension (3 million cells per assay) were preincubated with and without compound being tested for 5 min at 37° C. in 50 mM Tris-Cl, 1 mM CaCl2, pH 7.4. Ionophore A23187 (3 μM) and [^14 C]arachidonate (to give 10 μM; 55 Ci/mol) were then added in a total assay volume of 400 μl, and incubation was continued for 2 min at 37° C. Blank assays were performed using sonicated cells with 0.1 mM 3-amino-1-m-trifluoromethylphenyl pyrazol-2-ine, an inhibitor of cyclooxygenase and lipoxygenase pathways. After incubation, reaction mixtures were acidified with 20 μl of 2N HCl and extracted with 4 ml diethyl ether. Ether extracts were dried under nitrogen, resuspended in ethyl acetate, and chromatographed on Whatman LK5D silica gel G plates, using ethyl acetate/isooctane/acetic acid/water (9/5/2/10; vols; top layer after 5 min shaking). Thin layer plates were exposed to Kodak SB-5 X-ray film to produce autoradiogran. [^14 C]DPM in products were obtained by scraping appropriate regions of TLC plates and counting in a scintillation spectrometer. Effects on the 5-lipoxygenase pathway were estimated by counting 5-HETE and 5,12-diHETE (LTB4). Cyclooxygenase and thromboxane synthetase inhibition were estimated by counting thromboxane B2 and prostaglandin E2 or F2 α. Selective thromboxane inhibitors will decrease thromboxane B2 and increase PGE2 and PGF2 α. Cyclooxygenase inhibitors will inhibit the formation of all three products.

As to `O=C(O)/C=C/c1ccc(-c2nc3c(=O)n(CC4CCCCC4)c(=O)n(CC4CCCCC4)c3[nH]2)cc1` [Example 1, (E)-4-[1,3 Bis(cyclohexylmethyl)-1,2,3,6-tetrahydro-2,6-dioxo-9H-purin-8-yl]cinnamic Acid], the IC50 in test [1] was 2.5 µM; in test [2] it was 0.1 µM.

On to `O=C(O)/C=C/c1ccc(-c2nc3c(=O)n(CC4CCCC4)c(=O)n(CC4CCCC4)c3[nH]2)cc1` [Example 4, (E)-4-[1,3 Bis(cyclopentylmethyl)-1,2,3,6-tetrahydro-2,6-dioxo-9H-purin-8-yl]cinnamicAcid], for which the figures for the IC50 in test [1] and in test [2] were 15 µM and 5 µM, respectively.

`O=C(O)/C=C/c1ccc(-c2nc3c(=O)n(CC4CCCCCC4)c(=O)n(CC4CCCCCC4)c3[nH]2)cc1` [Example 7, (E)-4-[1,3 Bis(cycloheptylmethyl)-1,2,3,6-tetrahydro-2,6-dioxo-9H-purin-8-yl]cinnamicAcid]: the IC50 in test [1] worked out at 12 µM; in test [2], 4 µM.
